# ChEMBL document CHEMBL1156241, “Synthesis of a biologically active isomer of kotalanol, a naturally occurring glucosidase inhibitor” (Bioorg Med Chem, 2010)
# Target: Maltase-glucoamylase (Homo sapiens, UniProt O43451)
# Experiment: Inhibition of recombinant human maltase glucoamylase N-terminal catalytic domain
# Chain of Maltase-glucoamylase (O43451 whole entry, the tested form may be a part): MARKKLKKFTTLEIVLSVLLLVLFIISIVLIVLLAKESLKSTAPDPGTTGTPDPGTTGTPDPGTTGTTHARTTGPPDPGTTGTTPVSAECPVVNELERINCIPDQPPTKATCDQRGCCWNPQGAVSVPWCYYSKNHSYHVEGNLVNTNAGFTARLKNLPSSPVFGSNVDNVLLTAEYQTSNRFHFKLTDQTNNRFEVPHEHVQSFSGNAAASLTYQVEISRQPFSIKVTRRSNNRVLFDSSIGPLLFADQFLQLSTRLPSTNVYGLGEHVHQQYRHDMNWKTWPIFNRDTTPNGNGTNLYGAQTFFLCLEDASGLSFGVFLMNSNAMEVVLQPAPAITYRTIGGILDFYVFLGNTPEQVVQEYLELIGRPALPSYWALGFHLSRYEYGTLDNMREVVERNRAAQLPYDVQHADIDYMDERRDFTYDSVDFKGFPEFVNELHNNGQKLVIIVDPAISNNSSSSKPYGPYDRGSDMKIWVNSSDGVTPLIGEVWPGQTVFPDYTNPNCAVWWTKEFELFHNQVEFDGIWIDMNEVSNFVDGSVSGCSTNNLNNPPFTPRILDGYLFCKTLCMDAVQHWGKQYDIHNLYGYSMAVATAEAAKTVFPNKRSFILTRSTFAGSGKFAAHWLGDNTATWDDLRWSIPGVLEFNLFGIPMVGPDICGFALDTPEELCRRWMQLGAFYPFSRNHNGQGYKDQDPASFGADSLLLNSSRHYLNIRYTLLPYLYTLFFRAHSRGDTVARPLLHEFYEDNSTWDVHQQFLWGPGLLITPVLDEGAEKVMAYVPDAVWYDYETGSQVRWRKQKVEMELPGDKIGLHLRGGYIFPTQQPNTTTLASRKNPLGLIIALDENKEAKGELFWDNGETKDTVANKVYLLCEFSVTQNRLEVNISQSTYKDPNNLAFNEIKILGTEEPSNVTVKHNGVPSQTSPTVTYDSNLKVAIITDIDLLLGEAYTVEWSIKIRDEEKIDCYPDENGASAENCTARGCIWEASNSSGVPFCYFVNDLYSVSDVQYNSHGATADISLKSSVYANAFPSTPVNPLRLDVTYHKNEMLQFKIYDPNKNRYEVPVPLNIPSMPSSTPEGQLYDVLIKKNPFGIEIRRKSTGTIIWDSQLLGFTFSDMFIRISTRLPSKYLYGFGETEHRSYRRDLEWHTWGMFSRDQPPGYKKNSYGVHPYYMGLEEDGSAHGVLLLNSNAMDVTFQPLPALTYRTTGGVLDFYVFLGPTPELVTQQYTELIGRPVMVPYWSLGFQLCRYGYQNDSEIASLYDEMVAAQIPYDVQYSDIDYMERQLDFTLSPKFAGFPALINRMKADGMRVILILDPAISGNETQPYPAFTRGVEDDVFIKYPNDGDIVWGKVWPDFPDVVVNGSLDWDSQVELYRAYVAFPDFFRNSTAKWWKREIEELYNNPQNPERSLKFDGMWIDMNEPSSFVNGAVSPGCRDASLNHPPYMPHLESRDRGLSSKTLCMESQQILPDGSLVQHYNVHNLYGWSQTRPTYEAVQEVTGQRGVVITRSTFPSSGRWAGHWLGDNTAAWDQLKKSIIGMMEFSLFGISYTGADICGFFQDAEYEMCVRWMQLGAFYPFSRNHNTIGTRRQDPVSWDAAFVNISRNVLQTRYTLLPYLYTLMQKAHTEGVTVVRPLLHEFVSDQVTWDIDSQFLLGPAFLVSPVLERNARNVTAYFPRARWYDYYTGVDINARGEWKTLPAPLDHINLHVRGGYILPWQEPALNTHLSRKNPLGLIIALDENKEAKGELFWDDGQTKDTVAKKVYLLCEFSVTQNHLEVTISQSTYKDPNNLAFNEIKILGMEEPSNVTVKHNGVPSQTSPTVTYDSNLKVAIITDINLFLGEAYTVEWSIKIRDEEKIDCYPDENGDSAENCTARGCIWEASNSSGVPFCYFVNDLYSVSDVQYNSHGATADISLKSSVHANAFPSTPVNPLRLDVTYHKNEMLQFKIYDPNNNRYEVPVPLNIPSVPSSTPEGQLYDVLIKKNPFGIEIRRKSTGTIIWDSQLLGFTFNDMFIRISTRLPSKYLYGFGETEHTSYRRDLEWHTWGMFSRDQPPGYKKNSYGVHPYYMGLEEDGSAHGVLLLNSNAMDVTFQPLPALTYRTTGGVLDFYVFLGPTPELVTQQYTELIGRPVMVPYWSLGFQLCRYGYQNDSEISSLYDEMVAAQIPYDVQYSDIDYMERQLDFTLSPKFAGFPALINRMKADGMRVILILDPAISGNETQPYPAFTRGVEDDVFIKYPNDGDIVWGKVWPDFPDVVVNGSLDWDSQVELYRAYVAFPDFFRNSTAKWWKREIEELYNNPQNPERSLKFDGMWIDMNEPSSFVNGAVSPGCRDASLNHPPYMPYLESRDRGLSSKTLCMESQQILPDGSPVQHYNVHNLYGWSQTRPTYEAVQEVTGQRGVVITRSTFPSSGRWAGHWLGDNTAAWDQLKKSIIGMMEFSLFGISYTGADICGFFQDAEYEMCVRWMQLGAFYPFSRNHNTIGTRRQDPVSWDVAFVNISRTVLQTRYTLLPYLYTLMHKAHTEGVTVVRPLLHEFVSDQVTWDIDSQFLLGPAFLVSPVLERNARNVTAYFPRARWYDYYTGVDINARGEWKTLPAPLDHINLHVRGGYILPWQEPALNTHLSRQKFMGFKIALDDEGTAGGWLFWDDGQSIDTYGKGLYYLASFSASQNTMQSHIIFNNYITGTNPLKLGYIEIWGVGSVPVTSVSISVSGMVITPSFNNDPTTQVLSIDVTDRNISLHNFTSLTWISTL
row,SMILES,Ki [nM]
1,O=S(=O)([O-])O[C@@H]([C@H](O)[C@H](O)[C@@H](O)CO)[C@H](O)C[S+]1C[C@@H](O)[C@H](O)[C@H]1CO (some centres undefined) [KOTALANOL],190
2,O=S(=O)([O-])O[C@@H]([C@H](O)[C@@H](O)[C@H](O)CO)[C@H](O)C[S+]1C[C@@H](O)[C@H](O)[C@H]1CO (some centres undefined),130
3,O=S(=O)([O-])O[C@@H]([C@H](O)[C@@H](O)[C@@H](O)CO)[C@H](O)C[S+]1C[C@@H](O)[C@H](O)[C@H]1CO (some centres undefined),100
4,O=S(=O)([O-])O[C@@H]([C@H](O)[C@H](O)[C@H](O)CO)[C@H](O)C[S+]1C[C@@H](O)[C@H](O)[C@H]1CO (some centres undefined),200
